What follows are compounds tested against T1, AHR (UniProt P35869) (assay: DRE-Luciferase Reporter Assay (Alternate Method) (Example 1B)). Conditions: cell line and AHR activating ligand not specified.
T1 construct: IC50
T1 sequence (P35869 1-848): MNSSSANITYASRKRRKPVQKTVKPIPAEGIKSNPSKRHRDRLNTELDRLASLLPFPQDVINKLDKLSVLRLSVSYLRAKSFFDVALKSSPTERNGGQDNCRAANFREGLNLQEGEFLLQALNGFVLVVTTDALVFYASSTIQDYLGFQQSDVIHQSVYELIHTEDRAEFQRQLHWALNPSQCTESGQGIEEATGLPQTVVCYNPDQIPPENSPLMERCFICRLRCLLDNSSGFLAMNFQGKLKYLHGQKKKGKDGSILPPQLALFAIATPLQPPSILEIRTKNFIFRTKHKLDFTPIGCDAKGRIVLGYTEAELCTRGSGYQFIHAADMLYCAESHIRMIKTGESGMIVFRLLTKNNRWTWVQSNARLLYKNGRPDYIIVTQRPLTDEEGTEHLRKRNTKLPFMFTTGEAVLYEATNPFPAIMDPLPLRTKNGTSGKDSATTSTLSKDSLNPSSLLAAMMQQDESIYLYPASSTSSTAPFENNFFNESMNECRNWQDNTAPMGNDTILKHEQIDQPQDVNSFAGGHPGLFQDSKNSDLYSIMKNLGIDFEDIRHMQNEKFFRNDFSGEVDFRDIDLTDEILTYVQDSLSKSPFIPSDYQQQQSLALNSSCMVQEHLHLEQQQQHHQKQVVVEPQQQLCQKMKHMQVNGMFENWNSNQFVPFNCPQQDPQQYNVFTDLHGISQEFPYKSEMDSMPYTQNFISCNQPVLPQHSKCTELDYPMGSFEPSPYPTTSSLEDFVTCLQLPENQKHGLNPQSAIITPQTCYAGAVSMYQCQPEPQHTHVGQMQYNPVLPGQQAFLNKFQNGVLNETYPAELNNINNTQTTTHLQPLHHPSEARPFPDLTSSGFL
Format: cell-based, murine or human
Procedure: AHR binds to Dioxin Responsive Elements (DRE) upstream of genes that it activates. One measure of AHR activity is activation of a reporter gene, such as luciferase, downstream of one or multiple DRE elements. Luciferase activity will reflect activation and inhibition of AHR in the cells expressing his reporter.
Murine Hepa1-6 or Hepa-1c1c7 or other murine cell line with a DRE-luciferase reporter either stably or transiently transfected were plated in media in plates (96-well, 384-well or other plates) and incubated overnight at 37° C. in a CO2 incubator or compound and agonist were added at the time of plating. Likewise, human HepG2 or other human cell line with a DRE-luciferase reporter either stably or transiently transfected were plated in media in plates (96-well, 384-well or other plates) and incubated overnight at 37° C. in a CO2 incubator or compound and agonist were added at the time of plating.
At the time that cells are plated or following incubation overnight, an AHR activating ligand, such as TCDD, kynurenine, ITE (2-(1H-indole-3-ylcarbonyl)-4-thiazolecarboxylic methyl ester), VAF347, BNF (beta-naphthoflavone), FICZ (6-formylindolo(3,2-b) carbazole or other AHR ligands, was added with or without AHR antagonist.
Cells were incubated for 4, 15 or 24 hours or another time point and then lysed for determination of luciferase activity as a read-out of the AHR activation or inhibition. Luciferase was measured with a commercial kit such as the Promega Luciferase kit or any kit or reagents that provide the luciferin substrate for measuring luciferase activity. The level of luciferase with only activating ligand added was the maximum signal while the luciferase with no ligand was the minimum signal. IC50 values were determined as the concentration which inhibits half of the luciferase activity.
CC(C)c1cnn2c(N[C@H]3CCc4cn[nH]c4C3)cc(-c3cncc(F)c3)nc12 (single isomer, unassigned) [I-32a] was tested, and the IC50 was > 1500 nM. CC(C)c1cnn2c(N[C@H]3Cc4ccc(O)cc4C3)cc(-c3cncc(C#N)c3)nc12 (single isomer, unassigned) [I-37a] was tested, and the IC50 was > 1500 nM. CC(C)c1cnn2c(N[C@H]3CCc4[nH]ncc4C3)cc(-c3cncc(F)c3)nc12 (single isomer, unassigned) [I-42a] was tested, and the IC50 was > 1500 nM. CC(C)c1cnn2c(NC3CCc4cc(O)ccc4C3)cc(-c3cncc(F)c3)nc12 (stereo in doubt) [I-82b, (2R)-2-[[5-(5-fluoro-3-pyridyl)-3-isopropyl-pyrazolo[1,5-a]pyrimidin-7-yl]amino]tetralin-6-ol] was tested, and the IC50 was > 1500 nM. CC(C)c1cnn2c(NC3Cc4[nH]c5ccccc5c4C3)nc(-c3cncc(F)c3)nc12 (stereo in doubt) [I-263a, (2S)—N-[2-(5-Fluoro-3-pyridyl)-8-isopropyl-pyrazolo[1,5-a][1,3,5]triazin-4-yl]-1,2,3,4-tetrahydrocyclopenta[b]indol-2-amine] was tested, and the IC50 was 1000 to 1500 nM. CC(C)n1cnc2c(NCCc3c[nH]c4ccncc34)nc(-c3cncc(F)c3)nc21 [I-8, 2-(5-Fluoro-3-pyridyl)-9-isopropyl-N-[2-(1H-pyrrolo[3,2-c]pyridin-3-yl)ethyl]purin-6-amine] was tested, and the IC50 was > 1500 nM. With CC(C)n1cnc2c(NCCn3c(=O)[nH]c4ccccc43)nc(-c3cncc(F)c3)nc21 [I-10, 3-[2-[[2-(5-Fluoro-3-pyridyl)-9-isopropyl-purin-6-yl]amino]ethyl]-1H-benzimidazol-2-one] the IC50 was > 1500 nM. For Cc1[nH]c2c(F)cc(F)cc2c1CCNc1nc(-c2cncc(F)c2)nc2c1ncn2C(C)C [I-11, N-(2-(5,7-Difluoro-2-methyl-1H-indol-3-yl)ethyl)-2-(5-fluoropyridin-3-yl)-9-isopropyl-9H-purin-6-amine], the IC50 was < 500 nM. For CC(C)n1cnc2c(NCCn3cnc4ccccc43)nc(-c3cncc(F)c3)nc21 [I-13, N-(2-(1H-Benzo[d]imidazol-1-yl)ethyl)-2-(5-fluoropyridin-3-yl)-9-isopropyl-9H-purin-6-amine], the IC50 was > 1500 nM. CC(C)n1cnc2c(NCCc3cn(C)c4ccccc34)nc(-c3cncc(F)c3)nc21 [I-14, 2-(5-Fluoropyridin-3-yl)-9-isopropyl-N-(2-(1-methyl-1H-indol-3-yl)ethyl)-9H-purin-6-amine] was tested, and the IC50 was > 1500 nM. CC(C)n1cnc2c(NCCc3cnc4ccccn34)nc(-c3cncc(F)c3)nc21 [I-15, 2-(5-Fluoro-3-pyridyl)-N-(2-imidazo[1,2-a]pyridin-3-ylethyl)-9-isopropyl-purin-6-amine] was tested, and the IC50 was < 500 nM. For CC(C)Nc1cc(NCCc2c[nH]c3ccccc23)nc(-c2cncc(F)c2)n1 [I-20, 2-(5-Fluoro-3-pyridyl)-N6-[2-(1H-indol-3-yl)ethyl]-N4-isopropyl-pyrimidine-4,6-diamine], the IC50 was < 500 nM. For CC(C)n1cnc2c(NCCc3cn4ccccc4n3)nc(-c3cncc(F)c3)nc21 [I-22, 2-(5-Fluoro-3-pyridyl)-N-(2-imidazo[1,2-a]pyridin-2-ylethyl)-9-isopropyl-purin-6-amine], the IC50 was < 500 nM. In the case of CC(C)n1cnc2c(NCCc3c[nH]c4c(F)cc(F)cc34)nc(-c3cncc(F)c3)nc21 [I-23, N-[2-(5,7-Difluoro-1H-indol-3-yl)ethyl]-2-(5-fluoro-3-pyridyl)-9-isopropyl-purin-6-amine], the IC50 is reported as < 500 nM. O=C(c1cnn2c(N[C@@H]3CCc4[nH]c5ccccc5c4C3)cc(-c3cncc(F)c3)nc12)N1CCOCC1 [I-24, [5-(5-Fluoro-3-pyridyl)-7-[[(3R)-2,3,4,9-tetrahydro-1H-carbazol-3-yl]amino]pyrazolo[1,5-a]pyrimidin-3-yl]-morpholino-methanone] was tested, and the IC50 was > 1500 nM. With CON(C)C(=O)c1cnn2c(N[C@@H]3CCc4[nH]c5ccccc5c4C3)cc(-c3cncc(F)c3)nc12 [I-25, 5-(5-Fluoro-3-pyridyl)-N-methoxy-N-methyl-7-[[(3R)-2,3,4,9-tetrahydro-1H-carbazol-3-yl]amino]pyrazolo[1,5-a]pyrimidine-3-carboxamide] the IC50 was > 1500 nM. In the case of CC(C)c1cnn2c(N[C@@H]3CCc4[nH]c5ccccc5c4C3)cc(-c3ccccc3)nc12 [I-26, (3R)—N-(3-isopropyl-5-phenyl-pyrazolo[1,5-a]pyrimidin-7-yl)-2,3,4,9-tetrahydro-1H-carbazol-3-amine], the IC50 is reported as > 1500 nM. With CC(C)c1cnn2c(NC[C@@H](C)c3ccc(O)cc3)cc(-c3cncc(F)c3)nc12 [I-28a, 4-[(1S)-2-[[5-(5-fluoro-3-pyridyl)-3-isopropyl-pyrazolo[1,5-a]pyrimidin-7-yl]amino]-1-methyl-ethyl]phenol] the IC50 was > 1500 nM. CN1CCN(C(=O)c2cnn3c(N[C@@H]4CCc5[nH]c6ccccc6c5C4)cc(-c4cncc(F)c4)nc23)CC1 [I-29, [5-(5-Fluoro-3-pyridyl)-7-[[(3R)-2,3,4,9-tetrahydro-1H-carbazol-3-yl]amino]pyrazolo[1,5-a]pyrimidin-3-yl]-(4-methylpiperazin-1-yl)methanone] was tested, and the IC50 was > 1500 nM. CC(C)c1cnn2c(NCCc3c[nH]c4ccccc34)ccnc12 [I-31, N-[2-(1H-indol-3-yl)ethyl]-3-isopropyl-pyrazolo[1,5-a]pyrimidin-7-amine] was tested, and the IC50 was > 1500 nM. CC(O)c1cnn2c(NCCc3c[nH]c4ccccc34)cc(-c3cncc(F)c3)nc12 (stereo not shown) [I-33, 1-[5-(5-Fluoro-3-pyridyl)-7-[2-(1H-indol-3-yl)ethylamino]pyrazolo[1,5-a]pyrimidin-3-yl]ethanol] was tested, and the IC50 was < 500 nM. In the case of Cc1cnn2c(N[C@@H]3CCc4[nH]c5ccccc5c4C3)cc(-c3cncc(F)c3)nc12 [I-34, (3R)—N-[5-(5-Fluoro-3-pyridyl)-3-methyl-pyrazolo[1,5-a]pyrimidin-7-yl]-2,3,4,9-tetrahydro-1H-carbazol-3-amine], the IC50 is reported as > 1500 nM. With Fc1cncc(-c2cc(N[C@@H]3CCc4[nH]c5ccccc5c4C3)n3ncc(C(F)(F)F)c3n2)c1 [I-35, (3R)—N-[5-(5-Fluoro-3-pyridyl)-3-(trifluoromethyl)pyrazolo[1,5-a]pyrimidin-7-yl]-2,3,4,9-tetrahydro-1H-carbazol-3-amine] the IC50 was > 1500 nM. With CC(C)c1cnn2c(N[C@@H]3CCc4[nH]c5ccccc5c4C3)cc(-c3cncc(C#N)c3)nc12 [I-38, 5-[3-Isopropyl-7-[[(3R)-2,3,4,9-tetrahydro-1H-carbazol-3-yl]amino]pyrazolo[1,5-a]pyrimidin-5-yl]pyridine-3-carbonitrile] the IC50 was > 1500 nM. In the case of Fc1cncc(-c2cc(N[C@@H]3CCc4[nH]c5ccccc5c4C3)n3nccc3n2)c1 [I-41, (3R)—N-[5-(5-Fluoro-3-pyridyl)pyrazolo[1,5-a]pyrimidin-7-yl]-2,3,4,9-tetrahydro-1H-carbazol-3-amine], the IC50 is reported as > 1500 nM. N#Cc1cncc(-c2cc(NCCc3c[nH]c4ccccc34)n3nccc3n2)c1 [I-43, 5-[7-[2-(1H-Indol-3-yl)ethylamino]pyrazolo[1,5-a]pyrimidin-5-yl]pyridine-3-carbonitrile] showed an IC50 of 500 to 1000 nM. With CC(C)c1cnn2c(NC3Cc4ccccc4C3)cc(-c3cncc(F)c3)nc12 [I-44, 5-(5-Fluoro-3-pyridyl)-N-indan-2-yl-3-isopropyl-pyrazolo[1,5-a]pyrimidin-7-amine] the IC50 was > 1500 nM. With CC(C)n1cnc2c(NC3Cc4ccc(O)cc4C3)nc(-c3cncc(F)c3)nc21 (stereo not shown) [I-48, 2-[[2-(5-fluoro-3-pyridyl)-9-isopropyl-purin-6-yl]amino]indan-5-ol] the IC50 was < 500 nM.
